Measurements taken from patent publication US20120237600A1, “MULTILAYER PHARMACEUTICAL COMPOSITION THAT CAN BE DISPERSED IN WATER AND WHICH CONTAINS A COMBINATION OF ANTIMALARIAL AGENTS” (SANOFI, priority 2009, published 2012).

Experiment: Compatibility of artesunate and ferroquine combined within one and the same tablet
Type: physicochemical
Settings: color of artesunate goes from white to brown
Text: However, artesunate and ferroquine are strongly incompatible if the two active ingredients are combined within one and the same tablet.

C[C@H]1[C@H](OC(=O)CCC(=O)O)O[C@@H]2O[C@@]3(C)CC[C@H]4[C@H](C)CC[C@@H]1[C@@]24OO3 [artesunate, Artesunate]
stability of artesunate when combined with ferroquine within the same tablet: rapid increase in the level of artesunate degradation products
